From a melting point compilation (Tetko et al.; mined from patent text by program, amines drawn as free bases though some values may be those of a salt) come the findings set out here.

For orientation: melting point means the temperature, or range, at which the solid turns liquid. `O=C(Nc1cccc(OC2OC(CO)C(O)C2O)c1)C(F)(F)F` (stereo unspecified) displayed a melting point of 133 to 135 °C.

On to `CCNc1cnc(-c2ccccc2)c(-c2ccccc2)n1`, for which the melting point lay within 121 to 123 °C.

`COC(=O)[C@H]1CN(CCO)CC[C@H]1NC(=O)OCc1ccccc1` displayed a melting point of 73 °C.

In turn, `CCOC(=O)C1=C(C)NC(C)=C(C(=O)OCC)C1c1ccccc1/C=C/C(=O)OC(CC(C)C)CC(C)C` registered a melting point of 49 to 52 °C.

Compound `CC(=O)Nc1ncc(SCC(=O)OC(C)(C)C)s1` displayed a melting point of 162 to 163 °C.

`CN1C(=O)C=C(c2ccc3c(c2)OCO3)C1=O` came in with a melting point of 210 to 215 °C.

On to `Cc1ccc(N(Cc2ccc(N(C)C)cc2)C(=O)Nc2c(C(C)C)cccc2C(C)C)c(C)c1`, for which the melting point was 100 °C.

`COc1ccc2nc3cc(OC)c(=O)c(Br)c-3sc2c1` had a melting point of 260 to 261 °C.

With `CC1=C(C#N)S(=O)(=O)c2cc(F)cc(F)c2N1`, the melting point was in the range of 289 to 290 °C.

`NC(=O)c1ccc(Cl)c2c1C=C([N+](=O)[O-])CO2` registered a melting point of 225 to 227 °C.

In the case of `COc1ccc2[nH]c(C(F)(F)F)c(C#N)c2c1`, the melting point is 189 to 190 °C.

Regarding `Cc1ccc(C(C)N(O)C(=O)c2ccc(S(C)(=O)=O)cc2)o1` (stereo unspecified), the melting point stood at 177 °C.

Compound `Cc1[nH]c(=O)cc2c1CC(c1ccncc1)CC2` (stereo unspecified) returned a melting point of over 300 °C.

In turn, `N#CCC1CN(Cc2ccccc2)CCO1` (stereo unspecified) showed a melting point of 62 °C.

As for `Cc1ccc(C(=O)CC2CCCN(C)C2)cc1` (stereo unspecified), the melting point lay in the range of 70 to 74 °C.

Compound `Clc1cc2c(cc1Cl)C(Cl)Cc1ccccc1S2` (stereo unspecified) came in with a melting point of 130 to 131 °C.

In turn, `COc1cc[nH]c1C=C1C(=O)Nc2cccc(C#CC(O)c3sccc3OC)c21` (racemic) had a melting point of 213 to 216 °C.

In the case of `CC(=O)C(=Cc1cccc([N+](=O)[O-])c1)P1(=O)OCCCO1`, the melting point is 144 to 146 °C.

Compound `COc1cc(C)cc(OC)c1C(=O)CCl` returned a melting point of 82 to 84 °C.

Consider `CCOC(=O)c1c(C)nc2c(cnn2CC)c1O`, for which the melting point lay in the range of 118 to 120 °C.

Turning to `CC(C)CC(=O)N[C@@H](CC(C)C)C(=O)N[C@@H](Cc1ccccc1)C(=O)CSCc1ccco1`, the melting point lay in the range of 108 to 115 °C.

`COc1ccc2ccc(N3C(=O)c4ccccc4C3CC(CCC(C)C)=NO)nc2n1` (stereo unspecified): the melting point was found to be 200 °C.

Turning to `Cc1cc(C[C@H](N)[C@H](O)c2ccc(F)cc2)cc(OC(F)(F)C(F)F)c1` (racemic), the melting point fell in the range of 96 to 98 °C.

In the case of `N#Cc1c(N)nc2ccccc2c1NCc1ccco1`, the melting point worked out at 206 °C.

With `COC(=O)c1cccc(OCCCNC(=O)C[C@H]2O[C@H](c3cccc(OC)c3OC)c3cc(Cl)ccc3N(CC(C)(C)CO)C2=O)c1`, the melting point lay within 99 to 100 °C.

For `CC1=CC(=O)C(C)=C2CC(C)(C)N=C12`, the melting point lay in the range of 107 to 109 °C.

As to `CCc1cnc2c(c1)ON(C(C)(C(N)=O)C(C)C)O2` (stereo unspecified), the melting point lay within 114 to 117 °C.

In turn, `O=C(NN1CCOCC1)OCCCCCCOC(=O)NN1CCOCC1` displayed a melting point of 197 to 199 °C.

Consider `O=C(NCCO)c1c([N+](=O)[O-])ccc(N(CCBr)CCBr)c1[N+](=O)[O-]`, for which the melting point is 94 to 97 °C.

`CN1CCC(Oc2ccc(Cl)cc2)(c2ccccc2)C(O)C1` (stereo unspecified) yielded a melting point of 164 to 165 °C.

Take `CCc1cnc2c(NC(=O)c3c(Cl)cccc3Cl)cccc2c1CCBr`: the melting point is 187 to 188 °C.

`CN1CC(CNNC(=S)Nc2ccccc2)CC2c3cccc4[nH]cc(c34)CC21` (stereo unspecified) showed a melting point of 205 to 206 °C.

For the compound `COc1ccc(C2=CC(=O)CCC2)cc1`, the melting point lay within 83 to 85 °C.

The compound `CCc1c(-c2ccc(O)cc2)c2c(COC)cc3cccc1n32` gave a melting point of over 130 °C.

The compound `COC(=O)CCc1ccc(-n2ncn(-c3ccc(C#N)cc3)c2=O)cc1` displayed a melting point of 213 to 215 °C.

`CC1(C)OC(=O)C(Oc2ccc3ncccc3c2)=C1c1ccc(S(C)(=O)=O)cc1` returned a melting point of 171 to 172 °C.
